Remaining binding data for seven compounds are collected here from patent publication US20230066011A1, “PYRROLOPYRIMIDINE DERIVATIVE, AND PHARMACEUTICAL COMPOSITION FOR PREVENTING OR TREATING PROTEIN KINASE-RELATED DISEASE COMPRISING SAME AS ACTIVE INGREDIENT” (VORONOI CO., LTD., priority 2019, published 2023).

Common to all, as to assay type: binding
For test [1], the target named is T1, CLK4 (Homo sapiens, UniProt Q9HAZ1).
T1 construct: purchased DiscoverX Corp. (ScanMAX Kinase analysis panel, service)
T1 sequence (Q9HAZ1 whole entry): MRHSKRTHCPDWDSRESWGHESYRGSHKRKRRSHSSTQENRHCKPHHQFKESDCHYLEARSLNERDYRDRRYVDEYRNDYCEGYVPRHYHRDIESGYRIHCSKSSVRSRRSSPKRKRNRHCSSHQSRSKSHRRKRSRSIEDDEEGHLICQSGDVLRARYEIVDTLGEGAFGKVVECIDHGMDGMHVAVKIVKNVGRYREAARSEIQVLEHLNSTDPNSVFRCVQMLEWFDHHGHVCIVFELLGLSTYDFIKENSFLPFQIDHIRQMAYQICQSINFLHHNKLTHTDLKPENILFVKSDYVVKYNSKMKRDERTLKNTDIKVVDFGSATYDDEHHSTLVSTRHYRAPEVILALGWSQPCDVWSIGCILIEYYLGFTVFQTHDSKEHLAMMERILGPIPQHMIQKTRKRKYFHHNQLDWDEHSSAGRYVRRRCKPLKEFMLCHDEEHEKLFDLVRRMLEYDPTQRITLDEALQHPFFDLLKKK
Description: ScanMAX Kinase analysis panel, CLK4. Conditions: 1 μM in DMSO; <35% considered inhibitory; read-out: percent control (% control), CLK4. The procedure:
(§1) Specifically, the enzyme (kinase) selectivity of Example compounds 238, 361, 411, 157, 161, 228, and 158 selected from the Example compounds of the present invention was determined by commissioning DiscoverX Corp., and an experiment was performed using a ScanMAX™ Kinase analysis panel. In this case, a concentration of the drug with which the enzymes were treated was 1 μM in DMSO, and the percent control (% control) was defined in the same manner as in the following Expression 1.
(§2) (Example Compound−Positive Control)/(Negative Control−Positive Control)×100 [Expression 1]
(§3) wherein the positive control represents a compound having a percent control of 0%, and the negative control represents DMSO having a percent control of 100%. For the enzyme selectivity of the present invention, it was considered that the compound has an inhibitory activity on each of the enzymes when the percent control for the corresponding enzyme was <35% (i. e., less than 35%).

For test [2], the target named is T2, CSNK1D (Homo sapiens, UniProt P48730).
T2 construct: purchased DiscoverX Corp. (ScanMAX Kinase analysis panel, service)
T2 sequence (P48730 whole entry): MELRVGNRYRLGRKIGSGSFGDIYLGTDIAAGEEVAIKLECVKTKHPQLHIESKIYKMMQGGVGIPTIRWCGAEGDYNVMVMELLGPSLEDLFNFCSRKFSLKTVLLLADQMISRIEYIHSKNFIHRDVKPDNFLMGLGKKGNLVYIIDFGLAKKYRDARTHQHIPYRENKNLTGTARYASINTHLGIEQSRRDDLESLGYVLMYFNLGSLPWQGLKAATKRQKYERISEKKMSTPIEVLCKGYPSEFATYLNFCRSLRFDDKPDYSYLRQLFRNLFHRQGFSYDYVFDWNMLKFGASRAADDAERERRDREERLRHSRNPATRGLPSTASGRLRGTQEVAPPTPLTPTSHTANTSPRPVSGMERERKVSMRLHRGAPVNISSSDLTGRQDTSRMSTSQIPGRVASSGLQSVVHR
Description: ScanMAX Kinase analysis panel, CSNK1D. To be noted: 1 μM in DMSO; <35% considered inhibitory; read-out: percent control (% control), CSNK1D. The protocol:
as §1, §2, §3

Test [3] addresses T3, CSNK1E (Homo sapiens, UniProt P49674).
T3 construct: purchased DiscoverX Corp. (ScanMAX Kinase analysis panel, service)
Description: ScanMAX Kinase analysis panel, CSNK1E. To be noted: 1 μM in DMSO; <35% considered inhibitory; read-out: percent control (% control), CSNK1E. The procedure:
as §1, §2, §3

Test [4] has as its target T4, DYRK1B (Homo sapiens, UniProt Q9Y463).
T4 construct: purchased DiscoverX Corp. (ScanMAX Kinase analysis panel, service)
Description: ScanMAX Kinase analysis panel, DYRK1B. Conditions: 1 μM in DMSO; <35% considered inhibitory; read-out: percent control (% control), DYRK1B. The procedure: as §1, §2, §3

The target in test [5] is T5, PLK4 (Homo sapiens, UniProt O00444).
T5 construct: purchased DiscoverX Corp. (ScanMAX Kinase analysis panel, service)
T5 sequence (O00444 1-970): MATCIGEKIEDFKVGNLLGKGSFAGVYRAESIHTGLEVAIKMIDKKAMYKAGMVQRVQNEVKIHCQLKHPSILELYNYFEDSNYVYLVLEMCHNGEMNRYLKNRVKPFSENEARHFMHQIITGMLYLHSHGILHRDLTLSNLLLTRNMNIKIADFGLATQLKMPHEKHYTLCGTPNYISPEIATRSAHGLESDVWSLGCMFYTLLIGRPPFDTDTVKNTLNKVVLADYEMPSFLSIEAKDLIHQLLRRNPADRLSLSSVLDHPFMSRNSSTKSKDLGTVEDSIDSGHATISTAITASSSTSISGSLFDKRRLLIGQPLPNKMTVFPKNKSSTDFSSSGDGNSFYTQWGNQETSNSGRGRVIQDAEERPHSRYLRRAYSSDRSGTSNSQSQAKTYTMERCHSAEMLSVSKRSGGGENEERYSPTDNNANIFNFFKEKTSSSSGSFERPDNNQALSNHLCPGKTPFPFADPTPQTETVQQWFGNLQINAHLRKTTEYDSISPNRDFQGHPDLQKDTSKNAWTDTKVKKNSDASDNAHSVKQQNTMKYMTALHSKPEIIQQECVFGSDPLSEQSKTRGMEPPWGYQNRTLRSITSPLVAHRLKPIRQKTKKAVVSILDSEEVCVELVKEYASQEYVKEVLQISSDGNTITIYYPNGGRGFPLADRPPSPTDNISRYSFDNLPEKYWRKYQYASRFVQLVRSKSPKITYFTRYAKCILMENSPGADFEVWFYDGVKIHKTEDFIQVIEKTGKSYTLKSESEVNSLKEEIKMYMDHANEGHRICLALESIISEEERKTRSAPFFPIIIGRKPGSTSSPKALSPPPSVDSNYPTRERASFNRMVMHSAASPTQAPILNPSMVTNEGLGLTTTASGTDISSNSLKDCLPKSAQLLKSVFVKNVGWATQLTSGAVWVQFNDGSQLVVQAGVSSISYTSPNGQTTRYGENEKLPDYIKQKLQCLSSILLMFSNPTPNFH
The experiment in a line: ScanMAX Kinase analysis panel, PLK4. To be noted: 1 μM in DMSO; <35% considered inhibitory; read-out: percent control (% control), PLK4. The protocol:
as §1, §2, §3

Test [6] concerns the target T6, PYK2 (Homo sapiens, UniProt Q14289).
T6 construct: purchased DiscoverX Corp. (commissioned ScanMAX panel service)
Description: ScanMAX Kinase analysis panel, PYK2. To be noted: 1 μM in DMSO; <35% considered inhibitory; read-out: percent control (% control), PYK2. The procedure: as §1, §2, §3

Test [7] concerns the target T7, TTK (Homo sapiens, UniProt P33981).
T7 sequence (P33981 1-857): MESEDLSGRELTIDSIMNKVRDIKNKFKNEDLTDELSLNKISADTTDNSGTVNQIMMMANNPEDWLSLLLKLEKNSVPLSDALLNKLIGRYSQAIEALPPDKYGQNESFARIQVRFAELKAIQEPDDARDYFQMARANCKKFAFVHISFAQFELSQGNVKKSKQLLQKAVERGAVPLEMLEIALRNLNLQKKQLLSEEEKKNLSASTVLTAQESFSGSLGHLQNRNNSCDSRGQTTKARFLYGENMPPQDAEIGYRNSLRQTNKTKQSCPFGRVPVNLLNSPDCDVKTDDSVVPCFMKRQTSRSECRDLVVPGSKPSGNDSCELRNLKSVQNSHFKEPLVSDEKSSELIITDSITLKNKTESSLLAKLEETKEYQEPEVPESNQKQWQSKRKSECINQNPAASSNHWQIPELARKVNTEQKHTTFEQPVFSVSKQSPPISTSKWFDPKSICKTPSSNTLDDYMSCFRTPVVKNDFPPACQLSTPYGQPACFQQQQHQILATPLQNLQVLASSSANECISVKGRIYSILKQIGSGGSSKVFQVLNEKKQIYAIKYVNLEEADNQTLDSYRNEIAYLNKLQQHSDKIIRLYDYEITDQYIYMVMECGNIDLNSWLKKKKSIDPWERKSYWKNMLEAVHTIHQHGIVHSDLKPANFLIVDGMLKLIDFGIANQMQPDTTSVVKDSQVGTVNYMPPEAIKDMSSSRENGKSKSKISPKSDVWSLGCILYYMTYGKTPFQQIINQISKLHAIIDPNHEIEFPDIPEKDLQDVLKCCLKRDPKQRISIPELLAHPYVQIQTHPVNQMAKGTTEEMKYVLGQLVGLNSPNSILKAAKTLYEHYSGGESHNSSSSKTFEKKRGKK
Description: ScanMAX Kinase analysis panel, TTK. More on the design: purchased DiscoverX Corp. (commissioned ScanMAX panel service). To be noted: 1 μM in DMSO; <35% considered inhibitory; read-out: percent control (% control), TTK. The procedure: as §1, §2, §3

T4 sequence (Q9Y463 whole entry): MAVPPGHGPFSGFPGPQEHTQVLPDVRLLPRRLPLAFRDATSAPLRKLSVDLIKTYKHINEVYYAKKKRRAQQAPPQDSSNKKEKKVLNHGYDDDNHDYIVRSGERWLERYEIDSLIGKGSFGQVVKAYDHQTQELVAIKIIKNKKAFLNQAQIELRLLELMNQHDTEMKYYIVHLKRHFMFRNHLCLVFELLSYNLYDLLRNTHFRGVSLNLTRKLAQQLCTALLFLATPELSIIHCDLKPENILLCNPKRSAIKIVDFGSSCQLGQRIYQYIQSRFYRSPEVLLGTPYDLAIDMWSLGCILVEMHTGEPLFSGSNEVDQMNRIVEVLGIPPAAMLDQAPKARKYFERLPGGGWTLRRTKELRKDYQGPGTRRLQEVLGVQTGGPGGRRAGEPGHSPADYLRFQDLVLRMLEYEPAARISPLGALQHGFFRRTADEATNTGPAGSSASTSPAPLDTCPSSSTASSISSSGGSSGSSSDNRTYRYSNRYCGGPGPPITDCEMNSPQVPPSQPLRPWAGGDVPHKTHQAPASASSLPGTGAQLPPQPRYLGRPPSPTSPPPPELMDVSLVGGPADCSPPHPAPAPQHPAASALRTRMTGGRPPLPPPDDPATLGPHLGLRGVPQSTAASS
T6 sequence (Q14289 whole entry): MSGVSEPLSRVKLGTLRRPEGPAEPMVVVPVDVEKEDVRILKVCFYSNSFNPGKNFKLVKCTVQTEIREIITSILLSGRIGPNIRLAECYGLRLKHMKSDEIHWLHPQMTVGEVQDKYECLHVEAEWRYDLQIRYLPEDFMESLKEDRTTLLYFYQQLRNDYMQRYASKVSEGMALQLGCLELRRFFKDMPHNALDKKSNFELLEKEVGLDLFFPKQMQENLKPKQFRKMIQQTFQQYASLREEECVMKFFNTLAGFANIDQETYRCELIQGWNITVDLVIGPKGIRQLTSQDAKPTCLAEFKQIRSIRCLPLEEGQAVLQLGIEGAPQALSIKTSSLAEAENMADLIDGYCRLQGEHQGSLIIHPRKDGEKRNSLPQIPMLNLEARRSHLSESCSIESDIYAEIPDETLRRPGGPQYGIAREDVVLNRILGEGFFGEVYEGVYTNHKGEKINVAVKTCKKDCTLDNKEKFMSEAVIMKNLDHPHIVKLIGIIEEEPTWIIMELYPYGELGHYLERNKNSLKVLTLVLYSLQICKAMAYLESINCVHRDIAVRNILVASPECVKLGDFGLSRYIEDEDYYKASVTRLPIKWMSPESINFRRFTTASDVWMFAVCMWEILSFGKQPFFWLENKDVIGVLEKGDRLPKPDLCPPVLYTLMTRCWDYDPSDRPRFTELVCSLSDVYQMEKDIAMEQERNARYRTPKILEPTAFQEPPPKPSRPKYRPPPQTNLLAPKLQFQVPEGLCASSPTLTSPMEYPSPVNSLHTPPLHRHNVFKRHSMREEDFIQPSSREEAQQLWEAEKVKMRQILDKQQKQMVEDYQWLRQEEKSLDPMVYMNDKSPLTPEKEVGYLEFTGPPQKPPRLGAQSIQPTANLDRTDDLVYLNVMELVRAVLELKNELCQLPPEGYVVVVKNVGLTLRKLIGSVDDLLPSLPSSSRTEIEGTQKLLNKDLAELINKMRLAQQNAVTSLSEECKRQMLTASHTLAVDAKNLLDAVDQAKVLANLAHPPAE
T3 sequence (P49674 whole entry): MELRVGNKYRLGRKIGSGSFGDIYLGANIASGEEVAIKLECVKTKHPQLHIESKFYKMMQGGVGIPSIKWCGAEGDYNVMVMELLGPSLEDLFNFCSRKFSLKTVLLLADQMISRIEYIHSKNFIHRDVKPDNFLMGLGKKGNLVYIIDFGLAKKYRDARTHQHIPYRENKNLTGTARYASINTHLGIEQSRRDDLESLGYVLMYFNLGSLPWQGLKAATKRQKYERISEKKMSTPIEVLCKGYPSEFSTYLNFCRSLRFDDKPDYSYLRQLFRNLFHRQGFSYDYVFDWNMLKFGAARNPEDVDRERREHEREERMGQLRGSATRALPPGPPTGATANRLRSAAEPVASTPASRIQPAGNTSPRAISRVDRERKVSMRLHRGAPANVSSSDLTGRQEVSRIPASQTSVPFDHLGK

In the case of `CNc1nc(Nc2ccc(S(=O)(=O)N3CCC(N4CCOCC4)CC3)cc2OC)nc2[nH]cc(C(F)(F)F)c12` [Example 157, N^2-(2-methoxy-4-((4-morpholinopiperidin-1-yl)sulfonyl)phenyl)-N^4-methyl-5-(trifluoromethyl)-7H-pyrrolo[2,3-d]pyrimidine-2,4-diamine 2,2,2-trifluoroacetate], the remaining binding at 1 µM in test [1] amounted to 0.55%; in test [2], 2.9%; in test [3], 2.4%; in test [4], 0%; in test [5] it was 10%; in test [6], 5.5%. For the same compound, in test [7], the remaining binding at 1 µM was determined as 4%.

`CCNc1nc(Nc2ccc(S(=O)(=O)N3CCC(N4CCOCC4)CC3)cc2OC)nc2[nH]cc(C(F)(F)F)c12` [Example 158, N^4-ethyl-N^2-(2-methoxy-4-((4-morpholinopiperidin-1-yl)sulfonyl)phenyl)-5-(trifluoromethyl)-7H-pyrrolo[2,3-d]pyrimidine-2,4-diamine 2,2,2-trifluoroacetate]: the remaining binding at 1 µM is 0.3% in test [1]; 5.3% in test [2]; 3.3% in test [3]; 0.8% in test [4]; 26% in test [5]; 3% in test [6]. For the same compound, the remaining binding at 1 µM in test [7] was determined as 2.6%.

As to `CCCNc1nc(Nc2ccc(S(=O)(=O)N3CCC(N4CCOCC4)CC3)cc2OC)nc2[nH]cc(C(F)(F)F)c12` [Example 161, N^2-(2-methoxy-4-((4-morpholinopiperidin-1-yl)sulfonyl)phenyl)-N^4-propyl-5-(trifluoromethyl)-7H-pyrrolo[2,3-d]pyrimidine-2,4-diamine], the remaining binding at 1 µM was found to be 0.65% in test [1]; 15% in test [2]; 12% in test [3]; 0% in test [4]; 11% in test [5]; 1.3% in test [6]. Besides, in test [7], the remaining binding at 1 µM came out at 4.2%.

For the compound `O=C(c1ccc(Nc2nc(C3CC3)c3c(C(F)(F)F)c[nH]c3n2)c2c1OCCO2)N1CCC(N2CCOCC2)CC1` [Example 228, (8-((4-cyclopropyl-5-(trifluoromethyl)-7H-pyrrolo[2,3-d]pyrimidin-2-yl)amino)-2,3-dihydrobenzo[b][1,4]dioxin-5-yl)(4-morpholinopiperidin-1-yl)methanone], the remaining binding at 1 µM in test [1] stood at 0.05%; in test [2], 45%; in test [3] it was 40%; in test [4] it was 0%; in test [5], 3.2%; in test [6], 22%. For the same compound, in test [7], the remaining binding at 1 µM is 2.9%.

For `CNc1nc(Nc2ccc(C(=O)N3CCC(N4CCOCC4)CC3)c3c2OCCO3)nc2[nH]cc(C(F)(F)F)c12` [Example 238, (8-((4-(methylamino)-5-(trifluoromethyl)-7H-pyrrolo[2,3-d]pyrimidin-2-yl)amino)-2,3-dihydrobenzo[b][1,4]dioxin-5-yl)(4-morpholinopiperidin-1-yl)methanone], the remaining binding at 1 µM in test [1] came to 3.6%; in test [2], 16%; in test [3] it was 32%; in test [4] it was 0%; in test [5] it was 7.8%; in test [6], 5.2%. The remaining binding at 1 µM in test [7] worked out at 2.9%.

With `C=CCNc1nc(Nc2ccc(S(=O)(=O)N3CCC(N4CCOCC4)CC3)cc2OC)nc2[nH]cc(C#N)c12` [Example 361, 4-(allylamino)-2-((2-methoxy-4-((4-morpholino-piperidin-1-yl)sulfonyl)phenyl)amino)-7H-pyrrolo[2,3-d]pyrimidine-5-carbonitrile], the remaining binding at 1 µM was 2.8% in test [1]; 3.9% in test [2]; 0.05% in test [3]; 6.1% in test [4]; 0.3% in test [5]; 2.2% in test [6]. Also, the remaining binding at 1 µM in test [7] came to 2.4%.

On to `CNc1nc(Nc2ccc(P3(=O)CCN(C4CC4)CC3)cc2OC)nc2[nH]cc(C(F)(F)F)c12` [Example 411, 1-cyclopropyl-4-(3-methoxy-4-((4-(methylamino)-5-(trifluoromethyl)-7H-pyrrolo[2,3-d]pyrimidin-2-yl)amino)phenyl)-1,4-azaphosphinane-4-oxide], for which the remaining binding at 1 µM in test [1] was 1.4%; in test [2], 14%; in test [3], 31%; in test [4], 4.5%; in test [5] it was 23%; in test [6], 13%. Moreover, in test [7], the remaining binding at 1 µM came to 2.5%.
